Where two headings read alike, the source gives them in different places.
Legend:
[1] = system: pCREB in gated human CD8+ cells; assay: Intracellular pCREB by flow cytometry in NECA-treated PBMCs, gated CD8+ T cells; format: cell-based; conditions: read-out: Activity (reduction of pCREB, restoration to normal physiological levels)
Method: (§1) Human peripheral blood mononuclear cells (PBMCs) were isolated using density centrifugation from fresh whole blood of healthy human blood donors. Cells were cryopreserved and thawed and rested for several hours in complete cell culture media containing human albumin and antibiotics (penicillin and streptomycin; 100 units or mg per ml respectively). […] DMSO was used as the storage diluent for concentrated A2AR antagonists. NECA and DMSO controls (% v/v) were also tested in parallel to the therapeutic candidates. After the indicated incubation time with NECA, cells were either stained to determine their intracellular level of pCREB, or activated with Dynabeads overnight before staining for intracellular cytokines, as described below.
(§2) PBMCs that were cultured with A2AR antagonists in the presence of NECA and were subsequently fixed and permeabilized using ice cold paraformaldehyde and methanol-based kit reagents (ThermoFisher and Miltenyi, respectively). […] Stained cells were acquired using a Fortessa flow cytometer (BD). Gating of the desired cell subsets was performed using FSC-A vs FSC—H to remove doublet cells, FSC vs SSC parameters to identify cells with lymphocyte-like morphology, followed by CD3^+ T cell and CD4^+ or CD8^+ sub-gating. The fold change in mean fluorescence intensity (MFI) of intracellular pCREB in gated CD4 or CD8^+ T cells was calculated using NECA-only conditions, and divided by NECA and A2AR antagonist-cultured cells from the same donor. The overall activity of the tested compounds was calculated using the average of at least 3 donors.
(§3) Compounds of the invention were tested in physiological conditions using healthy human peripheral blood mononuclear cells as well as in the presence of human albumin to increase the physiological relevance of the assay. […] The activity scale represented is the average for at least 3 donors, compared to the NECA-only control.

[2] = system: pCREB in gated human CD4+ cells; assay: Intracellular pCREB by flow cytometry in NECA-treated PBMCs, gated CD4+ T cells; format: cell-based; conditions: read-out: Activity (reduction of pCREB, restoration to normal physiological levels)
Method: as §1, §2, §3

A2AR = A2AR (Homo sapiens, UniProt P29274); assay: cAMP biosensor antagonist potency assay in CHO cells expressing recombinant A2AR
Method: Chinese Hamster Ovary (CHO) cells containing an in-house cAMP-based biosensor, described below, and expressing recombinant A2AR were used to characterize the potency of A2AR antagonists according to the invention. The biosensor contains a cAMP binding domain allowing the measurement of Gs and Gi-coupled receptors activation. Cells were treated in a 384 well plate with the indicated concentrations of A2AR antagonists, followed by the addition of an A2AR agonist, adenosine. cAMP levels were measured on a luminescent/fluorescent plate reader.
CHO cells expressing A2AR and the biosensor were seeded in a black 384-well plate (Nunc) and grown at 37° C. and 5% CO2 overnight. […] The cAMP biosensor allowed real-time monitoring of signals using an FDSS/μCELL (Hamamatsu). The assay was conducted in 1× Hanks Balanced Salt Solution (HBSS). The total volume of the reaction was 80 μl (45 μl of cells, 15 μl of antagonist and 20 μl of agonist). Data analysis was performed using GraphPad Prism.

[3] = compound at 1 μM, 5 µM NECA, gated human CD8+ cells, average of at least 3 donors vs NECA-only control
[4] = compound at 1 μM, 5 µM NECA, gated human CD4+ cells, average of at least 3 donors vs NECA-only control

Chain of A2AR (P29274 whole entry): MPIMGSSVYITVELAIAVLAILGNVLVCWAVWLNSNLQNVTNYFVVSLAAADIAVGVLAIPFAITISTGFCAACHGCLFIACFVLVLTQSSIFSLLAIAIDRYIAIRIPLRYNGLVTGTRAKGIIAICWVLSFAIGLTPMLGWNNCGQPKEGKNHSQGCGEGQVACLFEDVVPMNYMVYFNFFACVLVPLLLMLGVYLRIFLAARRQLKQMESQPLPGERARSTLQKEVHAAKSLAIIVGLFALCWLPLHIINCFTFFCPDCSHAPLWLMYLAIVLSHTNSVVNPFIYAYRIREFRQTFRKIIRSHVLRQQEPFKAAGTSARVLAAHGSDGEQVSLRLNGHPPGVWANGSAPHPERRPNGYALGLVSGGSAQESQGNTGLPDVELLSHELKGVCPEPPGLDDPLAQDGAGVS

SMILES | inhibition at 1 µM [1, 3] | inhibition at 1 µM [2, 4] | inhibition at 1 µM ([1]; Homo sapiens) | inhibition at 1 µM ([2]; Homo sapiens) | IC50 (A2AR)
Cc1ccc(-c2nc(N)nc3c2nnn3Cc2cccc(CO[C@H]3CCOC3)n2)o1 [Ciforadenant, 7-(5-methylfuran-2-yl)-3-[[6-[[(3S)-oxolan-3-yl]oxymethyl]pyridin-2-yl]methyl]triazolo[4,5-d]pyrimidin-5-amine, reference compound] | 70 to 90% | 70 to 90% |  |  | 
N#Cc1c(N)nc(N2CCCCC2)c(C#N)c1-c1cccc(-c2ccccc2)c1 [Compound 3, 4-([1,1′-biphenyl]-3-yl)-2-amino-6-(piperidin-1-yl)pyridine-3,5-dicarbonitrile] |  |  | > 90% | > 90% | 
N#Cc1c(N)nc(N2CCCCC2)c(C#N)c1-c1cccc(-c2ccccc2F)c1 [Compound 4, 2-amino-4-(2′-fluoro-[1,1′-biphenyl]-3-yl)-6-(piperidin-1-yl)pyridine-3,5-dicarbonitrile] |  |  | > 90% | > 90% | 
N#Cc1c(N)nc(N2CCOCC2)c(C#N)c1-c1cccc(-c2ccccc2)c1 [Compound 18, 4-([1,1′-biphenyl]-3-yl)-2-amino-6-morpholinopyridine-3,5-dicarbonitrile] |  |  |  |  | 200 to 1000 nM
COc1nc(N)c(C#N)c(-c2cccc(-c3ccccc3)c2)c1C#N [Compound 21, 4-([1,1′-biphenyl]-3-yl)-2-amino-6-methoxypyridine-3,5-dicarbonitrile] |  |  |  |  | 200 to 1000 nM
CCOc1nc(N)c(C#N)c(-c2cccc(-c3ccccc3)c2)c1C#N [Compound 22, 4-([1,1′-biphenyl]-3-yl)-2-amino-6-ethoxypyridine-3,5-dicarbonitrile] |  |  |  |  | < 200 nM
N#Cc1c(N)nc(N2CCCCC2)c(C#N)c1-c1cccc(-c2ncccc2F)c1 [Compound 24, 2-amino-4-(3-(3-fluoropyridin-2-yl)phenyl)-6-(piperidin-1-yl)pyridine-3,5-dicarbonitrile] | 40 to 70% | 70 to 90% |  |  | < 200 nM
N#Cc1c(N)nc(N2CCCCC2)c(C#N)c1-c1cccc(-c2cccc(F)n2)c1 [Compound 25, 2-amino-4-(3-(6-fluoropyridin-2-yl)phenyl)-6-(piperidin-1-yl)pyridine-3,5-dicarbonitrile] |  |  |  |  | < 200 nM
N#Cc1c(N)nc(N2CCCCC2)c(C#N)c1-c1cccc(-c2cc(F)ccn2)c1 [Compound 26, 2-amino-4-(3-(4-fluoropyridin-2-yl)phenyl)-6-(piperidin-1-yl)pyridine-3,5-dicarbonitrile] |  |  |  |  | 200 to 1000 nM
N#Cc1c(N)nc(N2CCCCC2)c(C#N)c1-c1cccc(-c2cncc(F)c2)c1 [Compound 27, 2-amino-4-(3-(5-fluoropyridin-3-yl)phenyl)-6-(piperidin-1-yl)pyridine-3,5-dicarbonitrile] |  |  |  |  | 200 to 1000 nM
N#Cc1c(N)nc(N2CCCCC2)c(C#N)c1-c1cccc(-c2cccnc2F)c1 [Compound 28, 2-amino-4-(3-(2-fluoropyridin-3-yl)phenyl)-6-(piperidin-1-yl)pyridine-3,5-dicarbonitrile] | 70 to 90% | > 90% |  |  | < 200 nM
N#Cc1c(N)nc(N2CCCCC2)c(C#N)c1-c1cc(-c2cccnc2)ccc1F [Compound 29, 2-amino-4-(2-fluoro-5-(pyridin-3-yl)phenyl)-6-(piperidin-1-yl)pyridine-3,5-dicarbonitrile] |  |  |  |  | < 200 nM
N#Cc1c(N)nc(N2CCCCC2)c(C#N)c1-c1cccc(-c2cccnc2)c1F [Compound 30, 2-amino-4-(2-fluoro-3-(pyridin-3-yl)phenyl)-6-(piperidin-1-yl)pyridine-3,5-dicarbonitrile] | 0 to 40% | 40 to 70% |  |  | < 200 nM
N#Cc1c(N)nc(N2CCCCC2)c(C#N)c1-c1cc(F)cc(-c2cccnc2)c1 [Compound 31, 2-amino-4-(3-fluoro-5-(pyridin-3-yl)phenyl)-6-(piperidin-1-yl)pyridine-3,5-dicarbonitrile] | 0 to 40% | 40 to 70% |  |  | < 200 nM
Cc1c(C#N)cccc1-c1cc(-c2cn(Cc3cccc(C(C)(C)O)n3)nn2)nc(N)n1 [Etrumadenant, 3-[2-Amino-6-[1-[[6-(2-hydroxypropan-2-yl)pyridin-2-yl]methyl]triazol-4-yl]pyrimidin-4-yl]-2-methylbenzonitrile, reference compound] | > 90% | > 90% |  |  | 
Cc1cc(-c2nnc(N)nc2-c2ccc(F)cc2)cc(Cl)n1 [Imaradenant, 6-(2-chloro-6-methylpyridin-4-yl)-5-(4-fluorophenyl)-1,2,4-triazin-3-amine, reference compound] | 40 to 70% | 40 to 70% |  |  | 
COCCOc1ccc(N2CCN(CCn3ncc4c3nc(N)n3nc(-c5ccco5)nc43)CC2)cc1 [Preladenant, 4-(furan-2-yl)-10-[2-[4-[4-(2-methoxyethoxy)phenyl]piperazin-1-yl]ethyl]-3,5,6,8,10,11-hexazatricyclo[7.3.0.0^2,6]dodeca-1(9),2,4,7,11-pentaen-7-amine, reference compound] | 70 to 90% | 70 to 90% |  |  | 
Nc1nc(-n2cccn2)nc(-n2cccn2)c1Br [Taminadenant, 5-bromo-2,6-di(pyrazol-1-yl)pyrimidin-4-amine, reference compound] | 0 to 40% | 0 to 40% |  |  | 
